Laboratory results taken from patent US20190117653A1, “SYSTEMS AND METHODS FOR TREATING BACTERIAL INFECTION” (priority 2016, published 2019).
Converted amounts (≈) assume the structure as drawn. Like-named read-outs stand apart in the source and are kept apart here.

Key:
[1] = 13-week toxicology study in the marmoset, AUC at NOAEL; assay type: in vivo; conditions: marmoset females
[2] = tested on: common Gram-positive and Gram-negative respiratory bacteria; test: pulmonary surfactant interaction, overall effect of BPS on MIC and MICRZ; assay type: cell-based; conditions: 2.5% (v/v) BPS; all tested strains or isolates
Procedure: Antibacterial susceptibility testing was measured by JMI Labs (North Liberty, Iowa, USA). […] These clinical isolates were collected from US (n=4), Mexico (n=2), and Italy (n=1). Susceptibility testing was performed by broth microdilution in accordance with the Clinical and Laboratory and Standards Institute (CLSI) guidelines M07-A10 (2015) and the standard operating procedures at JMI laboratories. Minimum inhibitory concentrations (MICS) were based on CLSI criteria (2015). There are no published breakpoints for iclaprim. E. coli, K. pneumoniae, M. catarrhalis, E. faecalis, and S. aureus were tested in cation-adjusted Mueller-Hinton broth (CA-MHB). […]
Because bovine pulmonary surfactant can introduce cloudiness to the MIC testing media, antimicrobial growth inhibition was also evaluated using the colorimetric metabolic indicator resazurin (Camlab Ltd., Cambridge, UK). […] Growth inhibition was then evaluated as a visible color change from blue (no growth) to pink (robust growth) and recorded as a MIC1z value.
(§1) The MICs of iclaprim, levofloxacin, and daptomycin were determined against Gram-positive and Gram-negative isolates.
A new vial of bovine pulmonary surfactant (BPS; Survanta®; Abbott Laboratories, Columbus, Ohio) was utilized for each independent experiment. […] MICs of daptomycin were determined in CAMHB with the Ca^2+ content adjusted to 50 mg/L.

[3] = tested on: E. faecalis ATCC 29212; test: MIC with/without bovine pulmonary surfactant; assay type: cell-based; conditions: Enterococcus faecalis
Procedure: (§2) Antibacterial susceptibility testing was measured by JMI Labs (North Liberty, Iowa, USA). […] These clinical isolates were collected from US (n=4), Mexico (n=2), and Italy (n=1). Susceptibility testing was performed by broth microdilution in accordance with the Clinical and Laboratory and Standards Institute (CLSI) guidelines M07-A10 (2015) and the standard operating procedures at JMI laboratories. Minimum inhibitory concentrations (MICS) were based on CLSI criteria (2015). There are no published breakpoints for iclaprim. E. coli, K. pneumoniae, M. catarrhalis, E. faecalis, and S. aureus were tested in cation-adjusted Mueller-Hinton broth (CA-MHB). S. pneumoniae were tested in CA-MHB supplemented with 2.5-5% lysed horse blood, and H. influenza were tested in Haemophilus test medium. Quality control and interpretation of results were performed in accordance with CLSI M100-S26 (2016) methods. QC ranges for iclaprim were those approved by CLSI and published in M100-S26 (2016). Iclaprim and comparator antibiotic MIC results were within the CLSI published ranges against E. coli ATCC 25922, E. faecalis ATCC 29212, E. faecalis ATCC 33186, H. influenzae ATCC 49247, K. pneumoniae ATCC 700603 (ESBL phenotype), S. aureus ATCC 29213, and S. pneumoniae ATCC 49619. Isolates were tested with MIC panels (ThermoFisher Scientific, Cleveland, Ohio, USA) of comparator antibiotics (daptomycin and levofloxacin).
(§3) Because bovine pulmonary surfactant can introduce cloudiness to the MIC testing media, antimicrobial growth inhibition was also evaluated using the colorimetric metabolic indicator resazurin (Camlab Ltd., Cambridge, UK). […] S. pneumoniae panels were omitted from resazurin analysis because the color change was obscured by the lysed horse blood present in the test medium. Growth inhibition was then evaluated as a visible color change from blue (no growth) to pink (robust growth) and recorded as a MIC1z value.
as §1
(§4) A new vial of bovine pulmonary surfactant (BPS; Survanta®; Abbott Laboratories, Columbus, Ohio) was utilized for each independent experiment. Each vial was mixed thoroughly and a 100 μL aliquot was spread on an agar plate, which was incubated overnight to confirm sterility. […] The concentration of surfactant was expressed in terms of percent volume of Survanta® suspension, which consisted of phospholipid (25 mg/mL) and surfactant proteins (<1 mg/mL) in 0.9% sodium chloride solution (Goerke, 1998). MICs of daptomycin were determined in CAMHB with the Ca^2+ content adjusted to 50 mg/L.

[4] = tested on: M. catarrhalis Clinical Isolate 893806; test: MIC with/without bovine pulmonary surfactant; assay type: cell-based; conditions: Moraxella catarrhalis, 2.5% v/v BPS, read-out: MIC, Resazurin: +BPS
Procedure: as §2, §3, §1, §4

[5] = tested on: S. aureus ATCC 29213; test: MIC with/without bovine pulmonary surfactant; assay type: cell-based; conditions: Staphylococcus aureus
Procedure: as §2, §3, §1, §4

[6] = tested on: H. influenzae ATCC 49247; test: MIC with/without bovine pulmonary surfactant; assay type: cell-based; conditions: Haemophilus influenzae
Procedure: as §2, §3, §1, §4

[7] = tested on: E. faecalis ATCC 33186; test: MIC with/without bovine pulmonary surfactant; assay type: cell-based; conditions: Enterococcus faecalis
Procedure: as §2, §3, §1, §4

[8] = tested on: S. aureus Clinical Isolate 825189; test: MIC with/without bovine pulmonary surfactant; assay type: cell-based; conditions: Staphylococcus aureus
Procedure: as §2, §3, §1, §4

[9] = tested on: E. coli ATCC 25922; test: MIC with/without bovine pulmonary surfactant; assay type: cell-based; conditions: Escherichia coli
Procedure: as §2, §3, §1, §4

[10] = biological target: L-type calcium channel (Homo sapiens, UniProt Q13936); test: L-type calcium channel inhibition; assay type: cell-based
[11] = tested on: S. aureus; conditions: worldwide surveillance studies; cited from earlier work
[12] = tested on: methicillin-resistant Staphylococcus aureus (MRSA) isolates nonsusceptible to daptomycin, linezolid or vancomycin; test: broth microdilution susceptibility of MRSA nonsusceptible to daptomycin, linezolid or vancomycin; assay type: cell-based
Procedure: Antibacterial susceptibility testing was conducted on a range of MRSA strains and isolates with varying susceptibilities to several recognized antistaphylococcal antibiotics. Susceptibility testing was performed by broth microdilution in accordance with the Clinical and Laboratory and Standards Institute (CLSI) guidelines. Minimum inhibitory concentrations (MICs) were based on CLSI criteria.

[13] = tested on: S. aureus strain AH1252; test: neutropenic rat lung infection model; assay type: in vivo, Staphylococcus aureus
Procedure: S. aureus strain AH1252, a thymidine knockout of the MRSA wild type AW6 strain, was utilized for this study. The bacterial strain was diluted in a 2% alginate buffer, which was added dropwise in a ratio of 1:5 into […] to form alginate beads. The alginate beads reduce the efficacy of bacterial clearance similar to that seen in the cystic fibrosis population. A 5.25×10^4 bacterial inoculum was administered to groups of 9 rats, intratracheally, with prepared alginate bacteria suspensions, under isoflurane anesthesia. […] Twelve hours after the last treatment, rats were euthanized and lungs collected for CFU determination.

Sequence of L-type calcium channel (Q13936 whole entry): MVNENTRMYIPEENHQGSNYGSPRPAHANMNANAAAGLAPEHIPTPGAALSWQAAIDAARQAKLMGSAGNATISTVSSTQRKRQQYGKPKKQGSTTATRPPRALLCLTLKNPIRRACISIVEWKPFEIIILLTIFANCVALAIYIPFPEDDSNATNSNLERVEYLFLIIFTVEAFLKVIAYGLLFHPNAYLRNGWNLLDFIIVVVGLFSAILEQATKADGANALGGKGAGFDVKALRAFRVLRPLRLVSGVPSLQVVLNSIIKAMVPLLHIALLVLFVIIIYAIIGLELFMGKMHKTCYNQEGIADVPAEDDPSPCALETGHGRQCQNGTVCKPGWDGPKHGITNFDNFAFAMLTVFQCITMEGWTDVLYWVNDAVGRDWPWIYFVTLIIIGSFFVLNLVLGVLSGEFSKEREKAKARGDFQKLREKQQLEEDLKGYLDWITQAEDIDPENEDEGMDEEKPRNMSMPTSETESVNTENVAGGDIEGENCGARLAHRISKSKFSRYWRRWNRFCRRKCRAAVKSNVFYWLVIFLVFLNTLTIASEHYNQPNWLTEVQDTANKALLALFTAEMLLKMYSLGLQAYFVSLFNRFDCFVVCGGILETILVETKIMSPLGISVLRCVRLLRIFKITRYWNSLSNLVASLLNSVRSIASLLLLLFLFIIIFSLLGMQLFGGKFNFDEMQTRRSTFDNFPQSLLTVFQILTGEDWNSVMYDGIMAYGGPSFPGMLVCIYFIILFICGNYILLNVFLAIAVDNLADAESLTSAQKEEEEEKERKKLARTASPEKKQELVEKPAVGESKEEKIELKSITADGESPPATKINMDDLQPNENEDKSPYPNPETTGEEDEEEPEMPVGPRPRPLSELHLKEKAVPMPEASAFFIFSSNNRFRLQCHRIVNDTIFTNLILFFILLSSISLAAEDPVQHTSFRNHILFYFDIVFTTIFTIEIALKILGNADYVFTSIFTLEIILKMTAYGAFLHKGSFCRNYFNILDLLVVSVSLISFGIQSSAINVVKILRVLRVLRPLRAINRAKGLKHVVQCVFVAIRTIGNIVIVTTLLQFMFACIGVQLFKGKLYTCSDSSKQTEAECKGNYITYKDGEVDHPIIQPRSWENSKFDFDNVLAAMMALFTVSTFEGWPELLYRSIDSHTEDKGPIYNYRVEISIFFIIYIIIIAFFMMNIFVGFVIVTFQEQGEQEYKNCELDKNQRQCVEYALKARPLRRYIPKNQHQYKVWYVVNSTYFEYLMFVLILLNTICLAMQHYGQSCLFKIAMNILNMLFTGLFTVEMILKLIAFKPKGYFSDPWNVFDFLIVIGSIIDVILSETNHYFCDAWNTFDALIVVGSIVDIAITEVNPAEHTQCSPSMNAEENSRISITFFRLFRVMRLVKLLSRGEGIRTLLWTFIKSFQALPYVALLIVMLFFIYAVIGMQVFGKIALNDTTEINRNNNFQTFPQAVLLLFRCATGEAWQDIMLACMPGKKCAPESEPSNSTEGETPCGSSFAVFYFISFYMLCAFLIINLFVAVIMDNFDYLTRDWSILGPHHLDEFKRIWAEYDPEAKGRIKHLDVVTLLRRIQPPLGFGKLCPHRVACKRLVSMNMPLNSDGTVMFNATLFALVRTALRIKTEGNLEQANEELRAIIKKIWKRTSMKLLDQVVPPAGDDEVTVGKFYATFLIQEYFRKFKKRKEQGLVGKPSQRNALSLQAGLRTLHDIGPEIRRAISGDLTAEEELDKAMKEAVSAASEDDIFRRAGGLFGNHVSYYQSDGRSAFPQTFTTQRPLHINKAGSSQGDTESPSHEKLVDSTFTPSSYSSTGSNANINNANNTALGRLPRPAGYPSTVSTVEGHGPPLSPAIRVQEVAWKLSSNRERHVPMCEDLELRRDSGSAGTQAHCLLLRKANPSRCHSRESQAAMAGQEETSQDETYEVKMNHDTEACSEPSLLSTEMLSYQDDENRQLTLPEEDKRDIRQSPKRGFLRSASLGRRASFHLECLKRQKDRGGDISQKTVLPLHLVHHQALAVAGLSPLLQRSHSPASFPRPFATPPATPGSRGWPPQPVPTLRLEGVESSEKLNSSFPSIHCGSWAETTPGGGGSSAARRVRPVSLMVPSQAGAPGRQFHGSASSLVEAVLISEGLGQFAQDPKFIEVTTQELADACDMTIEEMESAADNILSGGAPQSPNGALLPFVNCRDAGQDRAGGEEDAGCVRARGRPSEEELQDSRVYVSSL

COc1cc(Cc2cnc(N)nc2N)c2c(c1OC)OC(C1CC1)C=C2 (racemic) [Iclaprim]
AUC achieved at the NOAEL [1]: 26,600 hr×ng/mL
effect of BPS on MIC and MICRZ values [2]: minimal or no effect
MIC ([3]; ATCC29212, 2.5% v/v BPS, read-out: MIC, Resazurin: +BPS): ≤ 0.015 µg/mL
MIC ([3]; ATCC29212, no BPS, read-out: MIC, Resazurin): ≤ 0.015 µg/mL
MIC [4]: 8 µg/mL (≈ 22.6 µM)
MIC ([5]; ATCC29213, 2.5% v/v BPS, read-out: MIC, CLSI: +BPS): 0.06 µg/mL (≈ 0.169 µM)
MIC ([5]; ATCC29213, 2.5% v/v BPS, read-out: MIC, Resazurin: +BPS): 0.06 µg/mL (≈ 0.169 µM)
MIC ([5]; ATCC29213, no BPS, read-out: MIC, CLSI): 0.06 µg/mL (≈ 0.169 µM)
MIC ([5]; ATCC29213, no BPS, read-out: MIC, Resazurin): 0.06 µg/mL (≈ 0.169 µM)
MIC ([6]; ATCC49247, 2.5% v/v BPS, read-out: MIC, Resazurin: +BPS): 0.25 µg/mL (≈ 0.705 µM)
MIC ([6]; ATCC49247, no BPS, read-out: MIC, Resazurin): 0.25 µg/mL (≈ 0.705 µM)
MIC ([7]; ATCC33186, 2.5% v/v BPS, read-out: MIC, Resazurin: +BPS): ≤ 0.015 µg/mL
MIC ([7]; ATCC33186, no BPS, read-out: MIC, Resazurin): 0.03 µg/mL (≈ 0.0846 µM)
MIC ([8]; 2.5% v/v BPS, read-out: MIC, CLSI: +BPS): 0.12 µg/mL (≈ 0.339 µM)
MIC ([8]; 2.5% v/v BPS, read-out: MIC, Resazurin: +BPS): 0.12 µg/mL (≈ 0.339 µM)
MIC ([8]; no BPS, read-out: MIC, CLSI): 0.06 µg/mL (≈ 0.169 µM)
MIC ([8]; no BPS, read-out: MIC, Resazurin): 0.06 µg/mL (≈ 0.169 µM)
MIC ([9]; ATCC25922, 2.5% v/v BPS, read-out: MIC, CLSI: +BPS): 0.5 µg/mL (≈ 1.41 µM)
MIC ([9]; ATCC25922, 2.5% v/v BPS, read-out: MIC, Resazurin: +BPS): 1 µg/mL (≈ 2.82 µM)
MIC ([9]; ATCC25922, no BPS, read-out: MIC, CLSI): 0.5 µg/mL (≈ 1.41 µM)
MIC ([9]; ATCC25922, no BPS, read-out: MIC, Resazurin): 1 µg/mL (≈ 2.82 µM)
IC50 [10]: 46 µM
MIC90 [11]: 120 ng/mL (≈ 0.339 µM)
isolates with MIC≤1 μg/ml ([12]; MRSA nonsusceptible to daptomycin (5 of 7)): 71.4%
isolates with MIC≤1 μg/ml ([12]; MRSA nonsusceptible to linezolid (25 of 25)): 100%
isolates with MIC≤1 μg/ml ([12]; MRSA nonsusceptible to vancomycin (18 of 27)): 66.7%
72 hour lungs log10CFU/Lung (CFU/gram of lung) ([13]; 80 mg/kg SC/BID): 3.34
Change in CFUs from 2 hr. infection controls ([13]; 80 mg/kg SC/BID): 0.22 log 10 CFU
Change in CFUs from 72 hr. infection controls ([13]; 80 mg/kg SC/BID): −5.34 log 10 CFU
Survival >60 hrs ([13]; 80 mg/kg SC/BID (160 mg/kg/day) 3 days): 9/9
CFU reduction from the 72 hour infection controls ([13]; iclaprim 80 mg/kg SC/BID): 5.34 log 10 CFU
